{"source": "paper PMC7309225", "about": "“Synthesis, Biodistribution, and Radiation Dosimetry of a Novel mGluR5 Radioligand: ^18F-AZD9272” (ACS Chemical Neuroscience, 2020)", "origin": "cited, not measured here", "key": {"[1]": {"test_system": "monoamine oxidase-B (MAO-B)", "parameters": "method as in PMID 23541825", "conditions": "human brain stem, thalamus, amygdala, cerebellum, and ventral striatum; cited from earlier work"}, "mGluR5": {"test_system": "mGluR5", "parameters": "method as in PMID 29608920", "conditions": "2TC, cited from earlier work"}}, "note": "Read-outs that look alike come from different tables or passages of the source."}
{"smiles": "N#Cc1cc(F)cc(-c2nc(-c3ccc(F)cn3)no2)c1", "note": "[^11C-AZD9272]", "values": [{"measurement": "MAO-B component of binding", "setting": "[1]", "value": "90–95%"}, {"measurement": "VT", "setting": "mGluR5; occipital cortex", "value": 6.5, "unit": "mL/cm^3"}, {"measurement": "VT", "setting": "mGluR5; ventral striatum", "value": 18.0, "unit": "mL/cm^3"}]}
